Assays:
Plasmodium berghei [1] = assay: Antimalarial activity against GFP-transfected Plasmodium berghei ANKA infected in mouse assessed as reduction in parasitemia at 30 mg/kg, po administered on day 1 post infection measured on day 3 post infection; type: functional; set-up: scale not given: the % may be the effect or the level left
[2] = Oral bioavailability in rat at 3 mg/kg; type: ADME, organism-based; settings: in vivo
Plasmodium yoelii = assay: Antimalarial activity against blood stage Plasmodium yoelii infected in mouse administered qd through oral gavage for 4 days; type: functional; settings: 96 h
Plasmodium falciparum [3] = assay: Antimalarial activity against Plasmodium falciparum 3D7; type: functional, organism-based
Plasmodium falciparum [4] = assay: Antimalarial activity against atovaquone-resistant Plasmodium falciparum TM90C2B; type: functional, organism-based
[5] = Therapeutic index, ratio of IC50 for mouse/rat NG108 cells to IC50 chloroquine-resistant Plasmodium falciparum W2; type: toxicity; settings: read-out: Ratio IC50
Plasmodium falciparum [6] = assay: Antimalarial activity against chloroquine-resistant Plasmodium falciparum W2 by [3H]-hypoxanthine incorporation assay; type: functional, organism-based
Plasmodium berghei [7] = assay: Antimalarial activity against Plasmodium berghei infected in po dosed mouse erythrocyte administered qd for 8 days by Giemsa staining based microscopic analysis; type: functional; settings: 192 h
[8] = Therapeutic index, ratio of IC50 for mouse J774 cells to IC50 chloroquine-resistant Plasmodium falciparum W2; type: toxicity; settings: read-out: Ratio IC50
[9] = Inhibition of Plasmodium falciparum cytochrome bc1 expressed in HEK293 cells by spectrophotometric analysis; type: cell-based
[10] = Inhibition of Plasmodium falciparum NDH2 expressed in HEK293 cells by spectrophotometric analysis; type: cell-based
Plasmodium falciparum [11] = assay: Antimalarial activity against Plasmodium falciparum FCR 3TC after 48 hrs; type: functional, organism-based
Plasmodium falciparum [12] = assay: Antimalarial activity against Plasmodium falciparum Dd2 assessed as reduction in parasite viability by [3H]-hypoxanthine incorporation assay; type: functional, organism-based
Plasmodium vinckei [13] = assay: Antimalarial activity against Plasmodium vinckei infected in ip dosed mouse assessed as reduction in parasitemia administered tid by 4-day suppression test; type: functional; settings: 96 h
Plasmodium vinckei [14] = assay: Antimalarial activity against Plasmodium vinckei infected in po dosed mouse assessed as reduction in parasitemia administered tid by 4-day suppression test; type: functional; settings: 96 h
[15] = Oral bioavailability in rat; type: ADME, organism-based; settings: in vivo
[16] = Half life in human; type: ADME
Plasmodium falciparum [17] = assay: Antimalarial activity against Plasmodium falciparum 3D7 after 48 hrs; type: functional, organism-based; settings: 3D7, 48 h
Plasmodium falciparum [18] = assay: Antimalarial activity against Plasmodium falciparum 3D7 after 96 hrs; type: functional, organism-based; settings: 3D7, 96 h
Plasmodium falciparum [19] = assay: Antimalarial activity against Plasmodium falciparum W2 after 48 hrs; type: functional, organism-based; settings: W2, 48 h
Plasmodium berghei [20] = assay: Antimalarial activity against blood stage Plasmodium berghei infected in mouse administered qd through oral gavage for 4 days; settings: 96 h

## CC(C)(N)CNC(=O)C[C@H]1CC[C@]2(CC1)OO[C@]1(O2)C2CC3CC(C2)CC1C3 [OZ277]
Plasmodium berghei [1]
  Activity: 99%
[2]
  bioavailability: 13%

## COc1cc2[nH]c(C)c(-c3ccc(Oc4ccc(OC(F)(F)F)cc4)cc3)c(=O)c2cc1Cl
Plasmodium yoelii
  ED50: 0.1 mg/kg
  ED90: 0.15 mg/kg
Plasmodium falciparum [3]
  IC50: 0.005 µM
Plasmodium falciparum [4]
  IC50: 0.003 µM

## O=C(C[C@H]1NCCC[C@@H]1O)Cn1cnc2ccccc2c1=O
[5]
  selectivity ratio: 3
Plasmodium falciparum [6]
  IC50: 0.0025 µM
Plasmodium berghei [7]
  ED50: 2.3 mg/kg
[8]
  selectivity ratio: 3

## O=C1C(O)=C([C@H]2CC[C@H](c3ccc(Cl)cc3)CC2)C(=O)c2ccccc21 [ATOVAQUONE]
Plasmodium yoelii
  ED50: 0.02 mg/kg
  ED90: 0.04 mg/kg
[9]
  IC50: 0.002 µM
Plasmodium falciparum [3]
  IC50: 0.0004 µM
[10]
  IC50: > 10 µM
Plasmodium falciparum [4]
  IC50: > 10 µM

## CC[C@H]1OC(=O)[C@H](C)[C@@H](O[C@H]2C[C@@](C)(OC)[C@@H](O)[C@H](C)O2)[C@H](C)[C@@H](O[C@@H]2O[C@H](C)C[C@H](N(C)C)[C@H]2O)[C@](C)(O)C[C@@H](C)C(=O)[C@H](C)[C@@H](O)[C@]1(C)O [ERYTHROMYCIN]
Plasmodium falciparum [11]
  IC50: 68 µM

## O=CN(O)CCCP(=O)(O)O [FOSMIDOMYCIN]
Plasmodium falciparum [12]
  IC50: 0.29 µM
Plasmodium vinckei [13]
  ED90: 5 mg/kg
Plasmodium vinckei [14]
  ED90: 20 mg/kg
[15]
  bioavailability: 30%

## CC[C@H]1OC(=O)[C@H](C)[C@@H](O[C@H]2C[C@@](C)(OC)[C@@H](O)[C@H](C)O2)[C@H](C)[C@@H](O[C@@H]2O[C@H](C)C[C@H](N(C)C)[C@H]2O)[C@](C)(O)C[C@@H](C)CN(C)[C@H](C)[C@@H](O)[C@]1(C)O [AZITHROMYCIN]
Plasmodium falciparum [11]
  IC50: 6.5 µM
[16]
  half-life: 74 h

## CC(=O)N(O)CCCP(=O)(O)O [FR-900098]
Plasmodium falciparum [12]
  IC50: 0.09 µM

## CCC[C@@H]1C[C@@H](C(=O)N[C@@H]([C@H]2O[C@H](SC)[C@H](O)[C@@H](O)[C@H]2O)[C@H](C)Cl)N(C)C1 [CLINDAMYCIN]
Plasmodium falciparum [17]
  IC50: > 10 µM
Plasmodium falciparum [18]
  IC50: 0.45 µM
Plasmodium falciparum [19]
  IC50: > 10 µM

## Cc1c(-c2ccc(-c3ccc(OC(F)(F)F)cc3)nc2)[nH]c2ccccc2c1=O
[9]
  IC50: 0.015 µM
[10]
  IC50: 0.014 µM
Plasmodium berghei [20]
  ED50: 1.8 mg/kg
  ED90: 4.7 mg/kg

## c1cc([C@H]2CC[C@]3(CC2)OO[C@]2(O3)C3CC4CC(C3)CC2C4)ccc1OCCN1CCOCC1 [ARTEFENOMEL]
[2]
  bioavailability: 76%
